Laboratory results: patent US4100278A, “Novel benzazepines” (Roussel Uclaf, priority 1976, dated 1978)
Counter-ions that a name gives are not always drawn.

How the values were obtained:
[1] = test system: effects of 5-hydroxytryptophane (5 HTP); assay: Potentialization of effects of 5 HTP in mice (trembling); assay type: in vivo; settings: Mus musculus, test product i.p. one hour before 200 mg/kg 5 HTP i.p., observed every 15 minutes for an hour, read-out: MAD (minimum active dose)
Description: The administration of 5-hydroxytryptophane (5 HTP) to mice pretreated with an antidepressive agent induces in the animals a particular behavoir, namely the appearance of trembling.

[2] = Acute toxicity (LD50) in mice; settings: mouse, in vivo, ip, intraperitoneal, mortality at 48 hours
Procedure: The LD50, dose which killed 50% of mice was determined by intraperitoneal administration of the test compounds and the mortality rate was determined of 48 hours.

L-dopa effects = assay: Potentialization of L-dopa effects in mice pretreated with iproniazide; assay type: in vivo; settings: Mus musculus, ip; male mice, test product i.p. one hour before L-dopa 100 mg/kg i.p.; iproniazide 75 mg/kg i.p. 18 hours before; read-out: ED50 (dose at which 50% of the L-dopa effects were potentialized)
Procedure: The administration of L-dopa to mice pretreated with iproniazide 18 hours earlier produces a certain number of symptoms: muscular hypertonicity, hyperactivity, agitation, crying, aggressiveness, salivation and exophthalmia. The intensity of these effects is potentialized by administration of an antidepressive agent one hour before the L-dopa administration.
Male mice received intraperitoneally 75 mg/kg of iproniazide 18 hours before the start of the test and the test products in aqueous solution were administered intraperitoneally in increasing doses. The L-dopa was intraperitoneally administered at a dose of 100 mg/kg one hour later and the symptoms observed 15 and 30 minutes after the L-dopa administration were evaluated on a scale of 0 to 3 for each mouse and the values were totaled for each dose.

[3] = test system: effects of nialamide (inhibitor of monoamine oxidase) - hyperactive motility; assay: Potentialization of effects of IMAO (nialamide), actimetric counting in mice; assay type: in vivo; design: key to the marks not given beside the values; settings: 30 minutes after nialamide 100 mg/kg i.p., counts totaled every 30 minutes for 6 hours
[4] = test system: uptake of serotonine (5 HT), purified synaptosoma from whole brain; assay: Inhibition of uptake of serotonine in vitro (Test No. 1); assay type: biochemical, female rats; settings: rat brain synaptosoma, 37° C, 5 minutes, C^14 - 5 HT 10^-7 M; read-out: 50% inhibiting concentration (IC 50) of uptake of C^14 - 5 HT (Test No. 1)
Procedure: The inhibition of uptake of serotonine (5 HT) was measured with purified synaptosoma prepared by starting from the whole brain of female rats 19-21 days old by the technique of Kannengiesser et al [Biochemical Pharmacology, Vol. 22 (1973), p. 73]. The test products at different concentrations were incubated with the preparation at 37° C for 5 minutes in the presence of C^14 - 5 HT at a concentration of 10^-7 M. The 50% inhibiting concentration (IC 50) of the products was graphically determined as the dose that inhibited by 50% the uptake of C^14 - 5 HT in the synaptosma.

[5] = test system: uptake of serotonine (C^14 - 5 HT), brain synaptosoma; assay: Inhibition of uptake of serotonine in vivo (Test No. 2); settings: Rattus norvegicus, ip; female rats 19 to 21 days old, 10 mg/kg i.p., brain removed after 30 minutes; read-out: % inhibition of uptake of C^14 - 5 HT with respect to the controls (Test No. 2)
Procedure: The test products were administered intraperitoneally to groups of female rats 19 to 21 days old at doses from 5 to 20 mg/kg. After 30 minutes, the brain was removed and the synaptosoma was prepared and was placed in an incubator in the presence of C^14 - 5 HT as indicated previously. […] The activity is expressed in % inhibition with respect to the controls at a dose of 10 mg/kg and the results are reported in Table V.

**Q.** For CNC1CCc2ccccc2N(C)C1 (centres unmarked) [Example 5, di-[N,1-dimethyl-2,3,4,5-tetrahydro-[1H]-1-benzazepine-3-amine]-fumarate], which minimal effective dose [1] is on record?
**A.** The minimal effective dose was 50 mg/kg.

**Q.** What about the LD50 at 48 h [2] of the same compound?
**A.** Its LD50 at 48 h is 150 mg/kg.

**Q.** Which minimal effective dose [1] does the source give for NCC1CCc2ccccc2NC1.O=C(O)/C=C/C(=O)O (centres unmarked) [Example 1, 2,3,4,5-tetrahydro-[1H]-1-benzazepine-3-methanamine fumarate] here?
**A.** The minimal effective dose was 50 mg/kg.

**Q.** And the LD50 at 48 h [2]?
**A.** The LD50 at 48 h was 300 mg/kg.

**Q.** And the ED50 (L-dopa effects)?
**A.** The ED50 was 10 mg/kg.

**Q.** And the “Potentialization of nialamide for the dose” value (“Potentialization of nialamide” for short) ([3]; 1 mg/kg i.p.)?
**A.** The value was “++”.

**Q.** With NC1CCc2ccccc2NC1 (centres unmarked) [Example 4, di-[2,3,4,5-tetrahydro-[1H]-1-benzazepine-3-amine]-fumarate] as the compound, how does the minimal effective dose [1] read?
**A.** The minimal effective dose was 50 mg/kg.

**Q.** And the LD50 at 48 h [2]?
**A.** Its LD50 at 48 h is 300 mg/kg.

**Q.** What about the ED50 (L-dopa effects) of the same compound?
**A.** Its ED50 is 50 mg/kg.

**Q.** What about the “Potentialization of nialamide” value ([3]; 20 mg/kg i.p.) of the same compound?
**A.** Its value is “++”.

**Q.** For CNCC1CCc2ccccc2NC1.Cl.Cl (centres unmarked) [Example 2, N-methyl-2,3,4,5-tetrahydro-[1H]-1-benzazepine-3-methanamine dihydrochloride], which IC50 [4] is on record?
**A.** The IC50 was 1.3 µM.

**Q.** What about the minimal effective dose [1] of the same compound?
**A.** The minimal effective dose was 10 mg/kg.

**Q.** And the inhibition at 10 mg/kg [5]?
**A.** Its inhibition at 10 mg/kg is 58%.

**Q.** What about the LD50 at 48 h [2] of the same compound?
**A.** The LD50 at 48 h was 250 mg/kg.

**Q.** What about the “Potentialization of nialamide” value ([3]; 5 mg/kg i.p.) of the same compound?
**A.** Its value is “+++”.

**Q.** For CNC1CCc2ccccc2NC1 (centres unmarked) [Example 6, di-[N-methyl-2,3,4,5-tetrahydro-[1H]-1-benzazepine-3-amine] fumarate], which minimal effective dose [1] is on record?
**A.** Its minimal effective dose is 20 mg/kg.

**Q.** And the LD50 at 48 h [2]?
**A.** The LD50 at 48 h was 250 mg/kg.

**Q.** Which IC50 [4] does the source give for CNCC1CCc2ccccc2N(C)C1 (centres unmarked) [Example 3, Di-[N, 1-dimethyl-2,3,4,5-tetrahydro-[1H]-1-benzazepine-3-methanamine]-fumarate] here?
**A.** Its IC50 is 1.3 µM.

**Q.** What about the minimal effective dose [1] of the same compound?
**A.** Its minimal effective dose is 50 mg/kg.

**Q.** What about the inhibition at 10 mg/kg [5] of the same compound?
**A.** Its inhibition at 10 mg/kg is 40%.

**Q.** What about the LD50 at 48 h [2] of the same compound?
**A.** Its LD50 at 48 h is 250 mg/kg.

**Q.** What about the ED50 (L-dopa effects) of the same compound?
**A.** The ED50 was 20 mg/kg.

**Q.** And the “Potentialization of nialamide” value ([3]; 5 mg/kg i.p.)?
**A.** The value was “++”.
